Here are results for 19 compounds from US7575882B2, “Compositions and methods for identifying modulators of TRPV2” (Janssen Pharmaceutica N. V., priority 2005, dated 2009).

Read-outs that look alike come from different tables or passages of the source.

Test [1] concerns the target T1, rat TRPV2 (Rattus norvegicus, UniProt Q9WUD2, A713V/L151P/T158I).
T1 construct: A cDNA fragment encoding the full-length rat TRPV2 was subcloned into pCI-neo; expressed in transfected cells
T1 sequence (Q9WUD2 1-761 L151P/T158I/A713V): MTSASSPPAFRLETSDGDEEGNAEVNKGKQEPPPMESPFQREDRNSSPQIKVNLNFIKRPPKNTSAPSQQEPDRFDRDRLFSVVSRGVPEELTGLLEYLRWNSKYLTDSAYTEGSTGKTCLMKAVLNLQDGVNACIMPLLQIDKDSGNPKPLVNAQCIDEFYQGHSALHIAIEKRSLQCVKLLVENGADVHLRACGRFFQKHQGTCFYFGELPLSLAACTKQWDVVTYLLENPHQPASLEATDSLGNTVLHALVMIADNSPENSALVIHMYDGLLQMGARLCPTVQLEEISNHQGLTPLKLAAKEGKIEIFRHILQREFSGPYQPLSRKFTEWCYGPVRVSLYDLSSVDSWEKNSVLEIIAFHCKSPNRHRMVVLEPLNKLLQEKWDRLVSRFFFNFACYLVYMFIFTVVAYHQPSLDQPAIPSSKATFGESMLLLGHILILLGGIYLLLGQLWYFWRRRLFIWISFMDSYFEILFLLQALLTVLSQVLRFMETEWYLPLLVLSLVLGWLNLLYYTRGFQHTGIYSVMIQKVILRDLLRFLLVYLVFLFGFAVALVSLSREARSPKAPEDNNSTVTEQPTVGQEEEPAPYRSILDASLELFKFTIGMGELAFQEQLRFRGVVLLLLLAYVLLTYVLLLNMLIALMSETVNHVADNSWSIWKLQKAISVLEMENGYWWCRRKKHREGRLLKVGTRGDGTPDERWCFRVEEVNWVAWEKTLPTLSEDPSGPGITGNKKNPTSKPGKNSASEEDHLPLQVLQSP
In words: FLIPR calcium mobilization assay in rat TRPV2-expressing HEK293 cells. Format: cell-based. The method, then:
A cDNA fragment encoding the full-length rat TRPV2 was subcloned into pCI-neo (Promega, Madison, Wis.) mammalian expression vector. The expression construct was then transfected into HEK293 cells with FuGene6 transfection reagent (Roche, Indianapolis, Ind.) according to the vendor's protocol. Stable cell lines were selected by growth in the presence of 400 μg/ml G418. Single G418 resistant clones were isolated and purified.
The rat TRPV2-expressing HEK293 cells were seeded in a 384-well plate at a concentration of 5×10^3 cells/well and incubated overnight at 37° C. The following day, the cells were loaded with buffer and calcium dye 3 (Molecular Devices, Sunnyvale, Calif.) in a final volume of 50 μl and incubated for 30 minutes at 37° C./5% CO2 followed by 30 additional minutes at room temperature. The fluorescence intensity was measured by a fluorescent plate reader (FLIPR) before, during and after the addition of test compounds.
All data was normalized to that observed for 100 μM Δ^9-THC.

Test [2] addresses T2, human TRPV1 (Homo sapiens, UniProt Q8NER1).
T2 construct: expressed in transfected cells; host or cells: HEK293
The test is described as follows: FLIPR assay in HEK293 cells expressing human TRPV1. In kind it is cell-based. As to conditions: Δ^9-THC 240 μM, cannabinol 600 μM, others 120 μM. The method, then: A selected number of cannabinoids were also tested against HEK293 cells expressing human TRPV1 and canine TRPM8 in the FLIRP assay.

Test [3] deals with T3, rat and human TRPV2 chimera RHR (Rattus norvegicus, UniProt Q9WUD2, A398L/D418K/D570G/D595E/E431N/E493A/E569T/E577V/E585D/F395L/F429V/I422A/INS586GN/K566E/L151P/L436T/L450V/L461V/L478F/L485V/L503S/M468I/M492L/N571P/P420Q/P587G/P589Q/Q419K/R460H/R490C/R560Q/R563W/R617H/S416T/S424H/S425L/S504A/S564R/S573A/S592G/T428E/T494I/T576S/T580M/V402I/V409A/V543I/V575E/V581E/V621M/V635I/Y400N).
T3 construct: expressed in transfected cells; host or cells: HEK293, transient, pCI-neo
In words: Calcium mobilization in HEK293 cells expressing TRPV2 chimera RHR. Format: cell-based. Conditions: transient expression in HEK293. The method, then: The deletion mutant constructs were then transfected into HEK293 cells using Fugene 6 reagent (Roche) as per the manufacturer's instructions. At 24 hours post-transfection, the cells were harvested and replated in fresh DMEM medium supplemented with 10% fetal bovine serum, 100 units/ml penicillin, and 100 μg/ml streptomycin. The cells were distributed onto poly-D-Lysine coated 96-or 384-well plates at a density of approximately 40,000 and 10,000 cells per well, respectively. At approximately 48 hours post-transfection, the medium was removed from the assay plate and replaced with Calcium 3 Dye Buffer (Molecular Devices) using the protocol available from the manufacturer. Calcium mobilization was triggered using Δ^9-THC or 2-APB or elevated temperature buffer and measured using either FLIPR or FLEX STATION instruments.
Based on the predicted topology and primary sequence features of TRPV2, TRPV2 are divided into 3 major domains: 1) the amino-terminal intracellular domain; 2) the transmembrane domain; and 3) the carboxyl-terminal intracellular domain. For a chimera, each domain can be of rat (R) or human (H) origin. Three rat and human TRPV2 chimera were constructed and tested herein. RRH (SEQ ID NO:15) was a chimera comprising rat 1-392 aa, rat 393-646 aa, and human 647-764 aa. RHR (SEQ ID NO:16) was a chimera comprising rat 1-392, human 391-646, and rat 647-761. HRR (SEQ ID NO:17) was a chimera comprising human 1-390, rat 393-646, and rat 647-761.
DNA molecules encoding the three rat and human TRPV2 chimeras were obtained by fusion PCR. First, DNA molecules encoding the desired TRPV2 domains were amplified by PCR using the rat or human TRPV2 cDNA as the template with synthetic primer DNA containing in-frame sequence that overlapped with the other species domain to be linked. After PCR amplification and purification, DNA molecules encoding the desired TRPV2 domains from human and rat were combined and used as templates for fusion PCR with primer DNA matching the 5′ and 3′ end sequences of the coding sequence for the full length TRPV2 chimera. […]

For test [4], the system named is deletion mutants of rat TRPV2. The test is described as follows: Calcium mobilization in HEK293 cells expressing rat TRPV2 deletion mutants. In kind it is cell-based. As to conditions: mutants lacking N-terminal 20, 32/33, 65/66 or C-terminal 11, 23, 32 residues. From the text:
DNA molecules encoding the deletion mutants were amplified by PCR using the rat TRPV2 cDNA as the template. For amino-terminal deletions, a series N-terminal forward primers encoding an initiating methionine in frame with sequences matching adjacent regions of the desired start at residues G21 (mutant N20, SEQ ID NO:11), P33 (N32, SEQ ID NO:12), A66 (N65, SEQ ID NO:13) and V84 (N83, SEQ ID NO:14) paired with a C-terminal reverse primer were used for PCR amplification. While for carboxyl-terminal deletions, a forward N-terminal primer paired with a series C-terminal reverse primers ending at residues R706 (C51, SEQ ID NO:7), P729 (C32, SEQ ID NO:8), P738 (C23, SEQ ID NO:9) and E750 (C11, SEQ ID NO:10) with an in-frame stop codon at the terminal end of the open reading frame were used for amplification. After PCR amplification and purification, the DNA molecules encoding the deletion mutants were subcloned into the pCI-neo mammalian expression vector and the constructs were confirmed by DNA sequencing. […]
The deletion mutant constructs were then transfected into HEK293 cells using Fugene 6 reagent (Roche) as per the manufacturer's instructions. […] Calcium mobilization was triggered using Δ^9-THC or 2-APB or elevated temperature buffer and measured using either FLIPR or FLEX STATION instruments.

Test [5] addresses CB2 receptor. Conditions: cited from earlier work.
Setting [6] is: FLIPR, rat TRPV2-expressing HEK293 cells; read-out: EC50 (activation of rat TRPV2).
The mark [7] stands for this setting: HEK293; read-out: % Response (activation of rat TRPV2).
Setting [8] is: 100 μM compound (anandamide 120 μM); normalized to 100 μM Δ^9-THC.

For `CCCCCCC(C)(C)c1cc(OC)c(C2C=C(CO)[C@H]3CC2C3(C)C)c(OC)c1` (stereo partly drawn) [HU-308], the Emax at 100 µM in test [1] (HEK293, read-out: % Response (activation of rat TRPV2)) is 10%.

For the compound `CCCCCc1cc(O)c2c(c1)OC(C)(C)c1ccc(C)cc1-2` [Cannabinol], the EC50 in test [1] (setting [6]) stood at 77.7 µM. The Emax at 100 µM in test [1] (setting [7]) was 68%. For the same compound, in test [2], the “activation of TRPV1” value is “no significant activation”.

Consider Cannabidiol, for which the “% Response (activation of rat TRPV2)” value in test [1] (setting [8]) is on record as 163%. In addition, in test [1] (setting [6]), the EC50 was 3.7 µM.

On to Nabilone, for which, in test [1] (setting [8]), the “% Response (activation of rat TRPV2)” value stood at 59%.

As for `Cc1cc2cccc3c2n1C(CN1CCOCC1)[C@H](C(=O)c1cccc2ccccc12)O3` (stereo partly drawn) [WIN-55,212-2], the Emax at 100 µM in test [1] (setting [7]) was -2%.

Turning to `CCCCCCCCCCCCCCCC(=O)NCCO` [PEA, palmitoylethanolamide], the Emax at 100 µM in test [1] (setting [7]) turned out to be 5%.

As for 2-aminoethoxydiphenyl borate [2-APB], in test [1] (setting [8]), the “% Response (activation of rat TRPV2)” value is listed as 102%. In test [1] (setting [6]), the EC50 came out at 8 µM. Further, the “response of chimera RHR to the compound” value in test [3] was “active”. Besides, the “response of rat TRPV2 deletion mutants to the compound” value in test [4] is “still active”.

Take `C=C(C)[C@@H]1CCC(C)=C[C@H]1c1c(O)cc(C)cc1O` [O-1821]: the EC50 in test [1] (setting [6]) was ~20 µM. Further, the Emax at 100 µM in test [1] (setting [7]) worked out at 95%.

As for `C=C(C)[C@@H]1CCC(C)=CC1c1c(OC)cc(C)cc1OC` (stereo partly drawn) [O-1918], the Emax at 100 µM in test [1] (setting [7]) came out at 6%.

As for `CCCC(C)(C)c1ccc2c(c1)OC(C)(C)[C@@H]1CC=C(C)C[C@@H]21` [JWH-133], in test [1] (setting [7]), the Emax at 100 µM turned out to be 5%.

On to `C=C(C)[C@@H]1CCC(C)=C[C@H]1c1c(O)cc(O)cc1CCCCC` [CAY10429], for which the Emax at 100 µM in test [1] (setting [7]) stood at 0%.

In the case of `Cc1c(C(=O)c2cccc3ccccc23)c2cccc3c2n1C(CN1CCOCC1)CO3` (stereo not drawn) [WIN 55,212-3], in test [1] (setting [7]), the Emax at 100 µM was found to be 7%.

For `CCCCC/C=C\C/C=C\C/C=C\C/C=C\CCCC(=O)NCCO` [Anandamide, N-arachidonoylethanolamine], in test [1], the “activation effect on TRPV2” value is “no or minimal activation effect”. Also, in test [1] (setting [7]), the Emax at 100 µM is 0%. Further, the Ki in test [5] is 1.93 µM. Besides, the “activation of TRPV1” value in test [2] is “activated”.

For the compound `C=C(C)[C@@H]1CCC(C)=C[C@H]1C1=C(O)C(=O)C(CCCCC)=CC1=O` [HU-331], the EC50 in test [1] (setting [6]) is ~14 µM. Also, the Emax at 100 µM in test [1] (setting [7]) worked out at 47%.

In the case of `CCCCC/C=C\C/C=C\C/C=C\C/C=C\CCCC(=O)OC(CO)CO` [2-AG, 2-arachidonylglycerol], in test [1] (setting [7]), the Emax at 100 µM amounted to 30%. For the same compound, the Ki in test [5] was 1.4 µM. In test [2], the “activation of TRPV1” value is on record as “activated”.

Take `CCCn1c(C)c(C(=O)c2cccc3ccccc23)c2ccccc21` [JWH015]: in test [1] (setting [7]), the Emax at 100 µM came to 14%.

With `CCCCCCC(C)(C)c1cc(O)c2c(c1)OC(C)(C)[C@H]1CC=C(CO)C[C@H]21` [HU-211], the Emax at 100 µM in test [1] (setting [7]) worked out at 31%.

With `CCCCCCC(C)(C)c1ccc(C2CC(O)CCC2CCCO)c(O)c1` (stereo not drawn) [CP55,940], in test [1] (setting [7]), the Emax at 100 µM was 43%.

Regarding `CCCCC/C=C\C/C=C\C/C=C\C/C=C\CCCC(=O)Nc1ccc(O)cc1` [AM404], in test [1] (setting [7]), the Emax at 100 µM is 6%. Further, the “activation of TRPV1” value in test [2] is listed as “activated”.
